From PubChem BioAssay AID434954 (Broad Institute, 2010) come the findings set out here.

pIC50: −log10 of the molar value. Activity calls are given as the source filed them.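 Rule for the calls: active = IC50 at or below a set limit above the highest tested dose; inconclusive = flat curve with 30 to 70% inhibition, or poor fit; inactive = the rest.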 Where only a bound is given, the exact number is not on record here.

This assay deals with Glycogen synthase kinase-3 beta (Homo sapiens) (UniProt P49841). Nature of the assay: GSK3beta kinase inhibitor potency, dose response, biochemical, luminescence, cell-free homogeneous, retest (AID 434954). Conditions: recombinant GSK3beta, ADP-Glo luminescence, 60 min.
Sequence of Glycogen synthase kinase-3 beta (Homo sapiens) (P49841 whole entry, looked up): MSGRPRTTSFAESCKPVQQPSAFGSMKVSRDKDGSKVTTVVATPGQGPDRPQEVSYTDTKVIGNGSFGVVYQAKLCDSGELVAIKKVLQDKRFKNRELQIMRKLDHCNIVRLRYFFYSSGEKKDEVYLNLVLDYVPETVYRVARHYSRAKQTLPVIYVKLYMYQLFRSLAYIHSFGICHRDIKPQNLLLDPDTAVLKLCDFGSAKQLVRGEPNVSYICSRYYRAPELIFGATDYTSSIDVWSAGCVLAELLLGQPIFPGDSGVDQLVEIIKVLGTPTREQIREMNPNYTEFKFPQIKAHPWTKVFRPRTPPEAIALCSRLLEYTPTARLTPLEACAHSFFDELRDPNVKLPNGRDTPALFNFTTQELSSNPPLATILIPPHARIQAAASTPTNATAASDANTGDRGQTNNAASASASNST
`O=C(O)CCn1cc(/C=N/O)c(-c2cccc([N+](=O)[O-])c2)n1`: the pIC50 was 5.13. `O/N=C/c1cn(-c2ccccc2)nc1-c1cccnc1`: the pIC50 was 5.19. The same measure, in the same setting: with `COc1cccc(C2C3=C(CC(C)(C)CC3=O)Nc3n[nH]c(C)c32)c1` (configuration not stated) the figure was 6.02. As for `COc1ccc(-c2nn(CCC#N)cc2/C=N/O)cc1OC`, the IC50 was > 30 µM (inactive). In the case of `O=C1CC(c2c[nH]c3ccccc23)C(=O)N1c1ccccc1` (configuration not stated), the IC50 was > 30 µM (inactive).

For `COc1ccc(OC)c(C2Nc3ccccc3NC3=C2C(=O)CC(C)(C)C3)c1` (configuration not stated), the IC50 was > 30 µM (inactive).

Consider `COc1cccc(/C=N/Nc2cc(Cl)nc(C)n2)c1O`, for which the IC50 was > 30 µM (inactive).

For the compound `Cc1c(C=Nc2ccc(S(=O)(=O)CCO)cc2)c(O)[nH]c(=O)c1C#N`, the IC50 was > 30 µM (inactive). Take `N#CC(C#N)=C1NC(N)=C(C#N)C(c2ccccc2)=C1C#N`: the negative logarithm of the IC50 (pIC50) is 4.72.

On to `Oc1[nH]c2ccccc2c1C=Nc1ccc2c(c1)OCO2`, for which the pIC50 is 4.94. As to `COc1cccc(C2C(C(=O)OCc3ccccc3)=C(C)Nc3ncnn32)c1OC` (configuration not stated), the pIC50 was 5.42.

Regarding `COc1cccc(C2C3=C(CC(C)(C)CC3=O)Nc3cc4c(cc32)OCO4)c1` (configuration not stated), the IC50 was > 30 µM (inactive). For `COc1ccc(-c2nn(-c3ccccc3)cc2/C=N/O)cc1`, the negative logarithm of the IC50 (pIC50) is 6.36.

Consider `CC1=C(C(=O)OCC2CCCO2)C(c2ccsc2)C2=C(CC(C)(C)CC2=O)N1` (configuration not stated), for which the IC50 is > 30 µM (inactive). Still for that read-out and setting: with `Nc1ncnc2c1ncn2[C@@H]1O[C@H](COP(=O)(O)O)[C@@H](O)[C@H]1O` the figure was > 30 µM (inactive). On to `CCOC(=O)C1=C(C)Nc2ncnn2C1c1ccc(N(C)C)cc1` (configuration not stated), for which the IC50 is > 30 µM (inactive).

In the case of `CC1(C)CC(=O)C2=C(C1)Nc1ccccc1NC2c1cccs1` (configuration not stated), the IC50 was > 30 µM (inactive).

As to `O=C1CCCC2=C1C(c1cccs1)Nc1ccccc1N2` (configuration not stated), the IC50 was > 30 µM (inactive). In the case of `Oc1ccc(/C=N/Nc2ncnc3nc[nH]c23)cc1`, the IC50 was > 30 µM (inactive).

In the case of `COc1ccc(C2C3=C(CC(C)(C)CC3=O)Nc3n[nH]c(C)c32)cc1` (configuration not stated), the pIC50 is 4.55. On to `COc1cccc(C2C3=C(CCCC3=O)Nc3[nH]n(-c4ccccc4)c(=O)c32)c1` (configuration not stated), for which the IC50 is > 30 µM (inactive).

Regarding `CCOc1ccc(N2C(=O)C(Cl)=C(Nc3ccccc3O)C2=O)cc1`, the IC50 was > 30 µM (inactive). As for `C(=N\Nc1ncnc2nc[nH]c12)/c1cccs1`, the negative logarithm of the IC50 (pIC50) is 4.71. Still for that read-out and setting: with `Cc1c(C(=O)O)cccc1-n1c(C)cc(/C=N/Nc2ccc([N+](=O)[O-])cn2)c1C` the figure was 4.67. With `Cc1ccc2c(c1)NC(c1cccs1)C1=C(CC(C)(C)CC1=O)N2` (configuration not stated), the IC50 is > 30 µM (inactive).

Consider `COc1ccc(OC)c(N=c2oc3cc(O)ccc3cc2C(N)=O)c1`, for which the pIC50 was 4.93. On the same count and under the same terms, with `O=C(N/N=C/c1ccc(O)c(O)c1)N/N=C/c1ccc(O)c(O)c1` the figure was 4.88; with `CCOC(=O)C1=C(C)Nc2ncnn2C1c1c[nH]c2ccccc12` (configuration not stated), 5.33.

On to `CSc1nc2c(c(=O)[nH]1)C(c1ccccc1)C1=C(CC(C)(C)CC1=O)N2` (configuration not stated), for which the IC50 was > 30 µM (inactive). Still for that read-out and setting: in the case of `CCOc1ccc(/C=C2/C(=N)N3OC(C)=CC3=NC2=O)cc1OC` it was > 30 µM (inactive). Turning to `Cc1ccccc1/C=N/Nc1ncnc2nc[nH]c12`, the pIC50 was 4.77. With `CCCCCOC(=O)C1=C(C)Nc2ncnn2C1c1cccs1` (configuration not stated), the IC50 is > 30 µM (inactive). Regarding `COc1ccc(-c2nn(-c3ccccc3)cc2/C=N/Nc2ccccn2)cc1`, the IC50 is > 30 µM (inactive). Regarding `O=C(Nc1cccc2c1C(=O)NC2=O)c1cccc(N2C(=O)CCC2=O)c1`, the IC50 is > 30 µM (inactive). On the same count and under the same terms, with `O=C(O)c1cccc(-c2ccc(/C=N/Nc3ccc([N+](=O)[O-])cc3)o2)c1` the figure was > 30 µM (inactive).

With `Oc1ccc(/C=N/Nc2ncc(Br)cn2)c(O)c1`, the pIC50 was 4.91. Turning to `Nc1ncnc2c1ncn2[C@@H]1O[C@H](CO)[C@@H](O)[C@H]1O`, the IC50 is > 30 µM (inactive). The same measure, in the same setting: in the case of `COc1cc(C2C3=C(CC(C)(C)CC3=O)Nc3c2c(=O)[nH]c(=O)n3Cc2ccccc2)ccc1O` (configuration not stated) it was > 30 µM (inactive).

For `CCOC(=O)C1=C(CN2CCSCC2)NC(=O)NC1c1cc(C)ccc1C` (configuration not stated), the IC50 is > 30 µM (inactive). On the same count and under the same terms, with `O=C(NCCCN1CCCC1=O)c1c(O)nc2sccn2c1=O` the figure was > 30 µM (inactive); with `C/C(=N\O)c1ncc(C(F)(F)F)cc1Cl`, > 30 µM (inactive). The same measure, in the same setting: with `COc1cc(CN=Cc2c(O)n(C(C)(C)C)c(=O)[nH]c2=O)cc(OC)c1` the figure was > 30 µM (inactive).

For `CN(C)C=NC(=O)/C(C#N)=C1\CCc2ccccc2N1`, the pIC50 is 4.70. Consider `Nc1ncnc2c1ncn2C1OC(CO)C(O)C1O` (configuration not stated), for which the IC50 is > 30 µM (inactive). As to `CC1=C(C(=O)OCc2ccccc2)C(c2cccnc2)n2ncnc2N1` (configuration not stated), the pIC50 is 4.55. In the case of `COc1cc(/C=N/O)ccc1OCc1ccccc1Cl`, the IC50 is > 30 µM (inactive).

`O=[N+]([O-])c1ccc2[nH]c(O)c(N=NC3CS(=O)(=O)CC3O)c2c1` (configuration not stated): the pIC50 was 4.64. Take `O=C(CC1SC(N2CCCCC2)=NC1=O)Nc1cccc(C(F)(F)F)c1` (configuration not stated): the IC50 was > 30 µM (inactive). Consider `Cc1ccc(/C=N/Nc2ncnc3nc[nH]c23)cc1`, for which the pIC50 was 4.52. For the compound `N#Cc1c(N)nc2c3c(sc(=N)c2c1N)NC(=O)CC3c1ccccc1` (configuration not stated), the IC50 was > 30 µM (inactive).

For `COc1cc(/C=N/Nc2ccc([N+](=O)[O-])cn2)cc(OC)c1O`, the pIC50 was 5.27. As for `Nc1nc(F)nc2c1ncn2[C@@H]1O[C@H](CO)[C@@H](O)[C@H]1O`, the IC50 was > 30 µM (inactive). For the compound `CCN(CC)S(=O)(=O)c1cccc(N2CC(O)=C(c3ccccc3)C2=N)c1`, the IC50 was > 30 µM (inactive).

On to `CCCC1=C(C(=O)OCC)C(c2sccc2C)n2ncnc2N1` (configuration not stated), for which the IC50 is > 30 µM (inactive).

`COc1ccc(C2CC(=O)C3=C(C2)Nc2ncnn2C3c2ccccc2C)cc1` (configuration not stated): the IC50 is > 30 µM (inactive). On the same count and under the same terms, in the case of `CC1=C(C(=O)Nc2ccccc2F)C(c2cccs2)C2=C(CCCC2=O)N1` (configuration not stated) it was > 30 µM (inactive). For `O=C(O)c1cc(N/N=C/c2ccc(-c3ccc(F)cc3)o2)ccc1Cl`, the IC50 was > 30 µM (inactive). Regarding `O=C(O)Cn1cc(/C=N/Nc2ccc([N+](=O)[O-])cn2)c2ccccc21`, the negative logarithm of the IC50 (pIC50) is 5.08.

`Cc1[nH]nc2c1C(c1ccc(O)cc1)C1=C(CC(C)(C)CC1=O)N2` (configuration not stated): the pIC50 is 5.69. The same measure, in the same setting: in the case of `Cc1cccc(N=Nc2c(C)c(C#N)c(O)[nH]c2=O)c1` it was 6.11. Turning to `COc1cc(/C=N\Nc2ccc([N+](=O)[O-])cc2)ccc1OCC(=O)Nc1ccc(C)c(C)c1`, the IC50 is > 30 µM (inactive). Still for that read-out and setting: with `CC1(C)CC(=O)C2=C(C1)Nc1cc3c(cc1C2c1ccc(F)cc1)OCO3` (configuration not stated) the figure was > 30 µM (inactive); with `Cc1ccccc1CSc1nc2n(n1)C(c1cccs1)C1=C(CCCC1=O)N2` (configuration not stated), > 30 µM (inactive). Still for that read-out and setting: in the case of `O=C(O)c1ccc(-c2ccc(/C=N/Nc3ccc([N+](=O)[O-])cc3)o2)cc1` it was > 30 µM (inactive); in that of `Nc1ncnc2c1ncn2[C@@H]1O[C@H](CO)[C@@H](O)[C@@H]1O`, > 30 µM (inactive); in that of `COc1ccc(C2C3=C(CCCC3=O)Nc3n[nH]c(C)c32)cc1OC` (configuration not stated), > 30 µM (inactive).

On to `CC1(C)CC(=O)C2=C(C1)Nc1ccccc1NC2c1ccc(F)cc1` (configuration not stated), for which the IC50 is > 30 µM (inactive).

As to `COc1ccc(C2C(C(C)=O)=C(O)C(=O)N2c2nccs2)c(OC)c1` (configuration not stated), the IC50 is > 30 µM (inactive). On the same count and under the same terms, in the case of `Cc1c(C=Nc2ccc(S(=O)(=O)N(C)C)cc2)c(O)[nH]c(=O)c1C#N` it was > 30 µM (inactive). Still for that read-out and setting: in the case of `O/N=C/c1ccc(OCc2ccccc2)c(Cl)c1` it was > 30 µM (inactive); in that of `CCN(CC)CCN1C(=O)C(=O)/C(=C(/O)c2ccc(S(=O)(=O)N3CCOCC3)cc2)C1c1ccccc1` (configuration not stated), > 30 µM (inactive); in that of `COc1ccc(-c2c(C)n([O-])c(C)c(C)[n+]2=O)cc1`, > 30 µM (inactive). Same read-out and setting: in the case of `O=C1CCCC2=C1C(c1cccs1)n1ncnc1N2` (configuration not stated) it was > 30 µM (inactive). `COc1ccc(C2C(C#N)=C(C)NC3=C2C(=O)CC(C)(C)C3)cc1` (configuration not stated): the IC50 is > 30 µM (inactive). Same read-out and setting: in the case of `Cc1nn(-c2ccccn2)c2c1C(c1ccsc1)C1=C(CCCC1=O)N2` (configuration not stated) it was > 30 µM (inactive). For the compound `COc1ccc(-c2nn(-c3ccccc3)cc2/C=N/O)cc1OC`, the pIC50 is 5.40.

`COc1ccc(COC(=O)C2=C(C)NC(=O)NC2c2ccc(O)c(OC)c2)cc1` (configuration not stated): the IC50 was > 30 µM (inactive).

In the case of `CC[n+]1c(/C=C/Nc2ccccc2)sc2ccccc21`, the IC50 was > 30 µM (inactive).

Take `CCOC(=O)C1=C(C)Nc2ncnn2C1c1ccccc1F` (configuration not stated): the IC50 was > 30 µM (inactive). Same read-out and setting: with `Cc1nn(-c2ccccn2)c2c1C(c1ccncc1)C1=C(CC(C)(C)CC1=O)N2` (configuration not stated) the figure was > 30 µM (inactive); with `CCOC(=O)/C(C(=O)Nc1ccc(Cl)cc1Cl)=C1/NC(C)(C)Cc2ccccc21`, > 30 µM (inactive); with `O=C(O)c1cc(-c2ccc(/C=N/Nc3ccc(Cl)cc3)o2)ccc1Cl`, > 30 µM (inactive).
